Experimental data published in the NIST ThermoML archive (doi:10.1021/je060170c).

Experiment: xn = mol fraction of the nth substance listed
Conditions: 101 kPa, Liquid; for viscosity: Anton Paar Stabinger viscometer

Cc1cc(C)cc(C)c1 [1,3,5-trimethylbenzene] + COc1ccccc1
Conditions	mass density [kg/m3]	speed of sound [m/s]	viscosity [mPa·s]
288.15 K, x2 = 0	869.169	1377.5	0.754
288.15 K, x2 = 0.074	876.661	1383.1	0.769
288.15 K, x2 = 0.181	887.986	1390.7	0.802
288.15 K, x2 = 0.334	905.232	1400.3	0.849
288.15 K, x2 = 0.4982	925.26	1408	0.893
288.15 K, x2 = 0.628	942.318	1420.3	0.965
288.15 K, x2 = 0.7512	959.611	1426.3	1.005
288.15 K, x2 = 0.814	968.893	1433.8	1.061
288.15 K, x2 = 0.875	978.238	1438.6	1.101
288.15 K, x2 = 0.94	988.554	1445.6	1.158
293.15 K, x2 = 0	865.072	1357	0.705
293.15 K, x2 = 0.074	872.553	1361.7	0.716
293.15 K, x2 = 0.181	883.818	1368.1	0.743
293.15 K, x2 = 0.334	900.968	1376.2	0.782
293.15 K, x2 = 0.4982	920.888	1383.3	0.819
293.15 K, x2 = 0.628	937.858	1395.1	0.883
293.15 K, x2 = 0.7512	955.065	1401.5	0.92
293.15 K, x2 = 0.814	964.301	1410	0.971
293.15 K, x2 = 0.875	973.59	1415.8	1.007
293.15 K, x2 = 0.94	983.844	1424.2	1.058
298.15 K, x2 = 0	861.062	1336.9	0.661
298.15 K, x2 = 0.074	868.529	1342.6	0.674
298.15 K, x2 = 0.181	879.758	1350.1	0.697
298.15 K, x2 = 0.334	896.835	1360	0.733
298.15 K, x2 = 0.4982	916.671	1370.5	0.767
298.15 K, x2 = 0.628	933.575	1379.4	0.827
298.15 K, x2 = 0.7512	950.712	1388.1	0.863
298.15 K, x2 = 0.814	959.91	1392.9	0.912
298.15 K, x2 = 0.875	969.162	1397.6	0.946
298.15 K, x2 = 0.94	979.363	1402.8	0.993
303.15 K, x2 = 0	856.95	1316.8	0.621
303.15 K, x2 = 0.074	864.41	1320.5	0.633
303.15 K, x2 = 0.181	875.58	1326.7	0.65
303.15 K, x2 = 0.334	892.57	1336.1	0.677
303.15 K, x2 = 0.4982	912.31	1347.1	0.706
303.15 K, x2 = 0.628	929.13	1356.2	0.758
303.15 K, x2 = 0.7512	946.19	1365.4	0.792
303.15 K, x2 = 0.814	955.34	1370.5	0.837
303.15 K, x2 = 0.875	964.55	1375.6	0.87
303.15 K, x2 = 0.94	974.7	1382.8	0.912
